SMILES	melting point [°C]
CC(NC(Nc1cc(Cl)cc(Cl)c1)=C(C#N)S(=O)(=O)c1ccc(Cl)cc1)C(C)(C)C (configuration not stated)	163 to 169
Oc1cccc(CCc2nc(-c3ccsc3)c(-c3ccsc3)o2)c1	144 to 145
COC(=O)CCCc1cc2cc(C(F)(F)F)ccc2n1S(=O)(=O)c1ccc2nc(C)oc2c1	78 to 82
N#CC1(c2ccc([N+](=O)[O-])cc2)CCCC1	76 to 77
O=C1CCCCCCCCC=CCCCCCCCCC1O (configuration not stated)	66 to 67
CS(=O)(=O)Cc1cc(F)cc(F)c1	135
O=C(c1cc(C(F)(F)F)cc(C(F)(F)F)c1)N1CCN(C(=O)CN2CCC(O)(c3ccccc3)CC2)C(c2ccccc2)C1 (racemic)	101 to 102
COc1c(C2CCN(CCCCNC(=O)c3ccc(-c4ccc(C#N)cc4)nc3)CC2)ccc2c1CCCC2	166 to 168
CCC(=O)NCCCSc1ccncc1	50 to 51
Cn1c(-c2ccc(OCC(O)CNC(C)(C)C)cc2)cc2ccccc2c1=O (configuration not stated)	130 to 132
COC(=O)c1cc(=O)c2c(C)cc(C)cc2[nH]1	227 to 229
CCc1nc2c(N)nc3cc(CCC(N)=O)ccc3c2n1CC1CCOCC1	197 to 199
NCc1ccccc1N	58 to 61
Cc1nc(-n2cn[nH]c2=O)sc1C(=O)NCc1cccnc1	278 to 279
O=C(O)CCCCCCCSc1ccc(Cl)cc1	92 to 93
Oc1c(C(=S)NCc2ccc(Cl)cc2)cnc2ccc(I)cc12	275 to 276
NC(=NO)c1ncn2c1[C@@H]1CCCN1C(=O)c1c(Cl)cccc1-2	249 to 250
O=C(NC(CO)Cc1ccc(O)cc1)OCC1CCCCC1 (configuration not stated)	121 to 126
Nc1cc(Cl)cc(C(=O)N[C@@H]2CN3CCC2CC3)c1OCc1cccc(I)c1	102 to 104
CSc1cnc2cc(Cl)sc2c1O	235 to 237
CCCCCCC1(c2cc(O)c([C@@H]3CC(=O)C4CC3C4(C)C)c(O)c2)OCCO1 (some centres not stated)	185 to 186
C#CC(OC(c1ccccc1)(c1ccccc1)c1ccccc1)C(C)(C)CCCC (configuration not stated)	75 to 77

SMILES	melting point [°C]
CCN(CC)c1ccc(C(c2ccc(N(C)C)cc2)c2ccc(N(C)C)cc2)c(OC(=O)Nc2ccccc2)c1	145 to 146
O=[N+]([O-])c1ccc(Cl)cc1-c1nc2ccccc2o1	130 to 132
O=C(O)c1cc(Cl)cc2c1NC(c1ccccc1)CC2 (configuration not stated)	199 to 200
COc1ccc(CCC2OC(=O)NC2=O)cc1O (configuration not stated)	121 to 122
O=C(NCc1ccccc1)c1ccnc(NC(=O)c2cccs2)c1	160 to 162
CCc1ccc(C=NNC(=O)c2ccc(O)cc2)o1	60.5
Cc1ccc(-c2cccc(/C=C/C(=O)Nc3ccc(-c4cccnc4)cc3)c2)cc1	213 to 214
CSc1nnc(-c2ccc(C)cc2)c(-c2ccc(C)cc2)n1	170 to 172
CN(C)Cc1c[nH]c2ccc(Br)cc12	139
COC(=O)[C@H]1C[C@H](NC(=O)Cc2ccccc2)c2c(Cl)cc(Cl)cc2N1 (relative stereo)	226 to 228
CCOC(=O)C1=C(N)C(OCC)=NS1=O (configuration not stated)	154 to 155
CCc1nc2c(C)cc(C)nc2n1Cc1ccc(-c2ccccc2C(=O)NN)cc1	139 to 142
OCCNCCOc1ccc(C2=C(c3ccccc3)CCCc3cc(O)ccc32)cc1	176 to 178
CCc1c(C)[nH]c(=O)c(I)c1Oc1cc(C)cc(C)c1	240
O=C(O)C1=CCc2ccccc21	157
COC(=O)C(=Cc1ccc(-c2cccc(N(C)C(=O)Nc3ccccc3)c2)cc1)OC	186
Nc1nc2cc(Cl)c(Cl)cc2nc1Br	232 to 234
CS(=O)(=O)NCCCCn1c(CC2CC2)nc2c(N)nc3ccccc3c21	200 to 201
Nc1nc(Cl)c(-c2ccc(Cl)cc2Cl)c(Cl)n1	211 to 213
CCn1c(=O)c2c(nc(/C=C/c3ccc(OC)c(OC)c3)n2C)n(CC)c1=O	190 to 191
O=C(Nc1ccc(C(F)(F)F)cc1)Nc1ccc(S(=O)(=O)NCCN2CCOCC2)cc1	62 to 65
NS(=O)(=O)c1ncccc1F	124 to 125

SMILES	melting point [°C]
C#CCNC1=NS(=O)(=O)N=C1NCCSCc1csc(NC(=N)N)n1	176 to 178
CC(C)(C)C(=O)N[C@@H](CS)C(=O)O	140
C[Si](C)(C)CCOC(=O)c1ccc(F)cc1N	43 to 44
ONC1CCn2c1cc1ccccc12 (configuration not stated)	159 to 161
O=C(C#CCN1C(=O)c2ccccc2C1=O)Nc1nnc(SCc2ccccc2)s1	128 to 131
OCCNc1nc(Cl)nc2cccc(Br)c12	165 to 167
COc1ccc(F)cc1N1CCN(CCCN2Cc3cc(Cl)c(S(N)(=O)=O)cc3C2=O)CC1	158 to 163
COC(=O)c1ccc2ncccc2c1C(=O)OC	124 to 125
CC(C(=O)O)c1ccc(Oc2ccc(F)cc2)cc1 (configuration not stated)	84 to 86
C=CCc1c(O)c(Cl)cc(F)c1N1C(=O)c2ccccc2C1=O	134 to 136
Cc1c2n(c3ccccc13)C(=O)C(Cc1cncn1C)CC2 (configuration not stated)	117 to 118
Cc1cccc(Cl)c1NC(=O)N=C1NCCN1	169 to 171
CC(C)(C)Sc1c(CC(C)(C)C(=O)O)n(Cc2ccc(Cl)cc2)c2ccc(OCc3cnccn3)cc12	173 to 175
Nc1nc(-c2cccc3ccc(Br)cc23)co1	189 to 190
CC(C)(C)C(=O)c1ccc(C(=O)O)cc1	160 to 162
COC(=O)CCC(NC(c1ccccc1)c1ccccc1)P(O)O (configuration not stated)	162 to 164
Cc1cc(I)sc1COCP(=O)(OC(C)C)OC(C)C	39 to 40
Cc1ccc(C(=O)Nc2ccc(CN3CCOCC3)c(C(F)(F)F)c2)cc1Br	147 to 151
CNC(=O)c1ccccc1I	153 to 154
COc1cc(OC)c([N+](=O)[O-])c(OC)c1NC=O	98
N#Cc1ccccc1C=Cc1ccccc1C#N	187 to 189
CC(C)n1c(=O)nc(-c2ccc3c(c2)OCO3)c2cc3c(cc21)OCCO3	229 to 231

SMILES	melting point [°C]
O=CN1CCC(c2ccccc2Cc2ccccc2)C1 (configuration not stated)	70 to 71
O=C1c2c(Cl)cccc2-n2cnc(C(=O)n3ccnc3)c2[C@@H]2CCCN12	240 to 242
Cc1cc(NC(=O)CCc2cccs2)cc(C)c1O	158 to 159
Nc1ccc(N2CCN(CC(O)(Cn3cncn3)c3ccc(Cl)cc3Cl)CC2)cc1 (configuration not stated)	60
CCCc1nn(C)c2c(=O)[nH]c(Cc3ccc(S(=O)(=O)O)cc3)nc12	> 350
O=C1CCCC(=O)C1=C(S)NCc1ccccc1	47 to 48
CC1CC(=O)NN=C1c1ccc2c(c1)N(CC(=O)N1CCN(CCO)CC1)CS2=O (configuration not stated)	231 to 233
O=[N+]([O-])c1ccc2c(c1)S(=O)(=O)N=C(NCC1CC1)N2	276 to 278
CS(=O)(=O)Oc1cccc(N2CCN(CCCCCC(=O)N3Cc4ccccc4C3)CC2)c1	141
COc1ccc2c(cc3n2CCc2ccccc2-3)n1	179 to 180
O=C1c2ccccc2C(=O)c2sc(-c3ccccn3)nc21	> 260
COc1ccc(C(=N)N)cc1C	151 to 153
CC(=O)C1(C)COC(c2ccc([N+](=O)[O-])cc2)OC1 (configuration not stated)	101 to 102
CN(C(=O)c1ccc(Cn2cnc3c(Cl)nc(Cl)nc32)cc1)C1CCCCC1	134 to 136
O=C1Nc2ccccc2Oc2c1[nH]c1ccccc21	233 to 234
Cc1c(C#N)sc2nc(Cc3ccccc3)nc(N3CCOCC3)c12	88 to 90
CCn1ncc2c(Cl)c3cc(SC)ccc3nc21	120 to 121
O=C1c2ccccc2NC(=S)C2CCCN12 (configuration not stated)	268 to 270
Cn1ncc2c1-c1c(Oc3ccc(N)cc3)sc(C(N)=O)c1CC2	214 to 216
O=S(=O)(c1ccccc1)n1c2ccc(C=Cc3ccccc3)cc2c2cc(Cl)cnc21	190 to 192
COc1cc(C(=O)O)ccc1-c1nc2cc3c(cc2[nH]1)NC(=O)C3(C)C	315 to 319
O=c1c2c(N3CCNCC3)cc(Cl)cc2n(Cc2ccccc2)c(=O)n1Cc1ccccc1O	113 to 130

SMILES	melting point [°C]
NC(=O)Cc1ccc(OCCc2coc(-c3ccccc3)n2)cc1	180 to 184
CCOP(=O)(OCC)C(Sc1cc(Br)ccc1O)=P(OCC)(OCC)OCC	118 to 120
CCOC(=O)c1ccc2c(c1)C=C(n1ccnc1)CC2	113 to 116
c1ccc(-c2noc(-c3cc4c(cn3)[nH]c3ccccc34)n2)cc1	279 to 283
Nc1c(-c2ccc(-c3ccc(F)cc3)c(F)c2)nc2ccc(F)cc2c1C(=O)O	245 to 247
CCOC(=O)N1CCN(c2ccc(O)cc2)CC1	169
CCCCS(=O)(=O)c1c(Cl)nc(Cl)nc1Cl	71 to 72
Cc1oc(-c2ccccc2)nc1C(=O)COc1ccc(CCC2OCCO2)cc1	119 to 120
CC(=O)N=C(CCSCc1csc(NC(=N)N)n1)NC(C)=O	180 to 181
O=C(Nc1cc2ccccc2cn1)c1cncnc1NCc1ccncc1	218 to 220
CCCc1c[nH]c2cc(CO)ccc12	68 to 71
Brc1cccc(Sc2ccccc2)n1	47
Nc1csc2c([N+](=O)[O-])cccc12	188 to 191
C=CCNc1nc(-c2ccc(=O)n(C(C)C)n2)c(-c2ccccc2)nc1N	208 to 210
CCOC(=O)Cc1ccccc1N(C(=O)CNC(=O)Nc1cccc(C)c1)c1ccccc1	120
O=[N+]([O-])c1ccc(-n2ccnn2)c(F)c1	123 to 124
CC(C)CCn1cc(C2CCN(CCOc3ccccc3C(=O)O)CC2)c2ccccc21	150 to 151
CC(C)(Cc1cccc2ccccc12)NC=O	79 to 80
NC(=C[N+](=O)[O-])N1CCCC1	120 to 125

— a melting point compilation (Tetko et al.; mined from patent text by program, amines drawn as free bases though some values may be those of a salt)
